Data published in patent US5834491A, “Bis(2-aminopyridine)s, preparation method therefor and use thereof for controlling parasitic infections” (priority 1994, dated 1998).
Structures can show the parent of a compound that is named as a salt. Where two headings read alike, the source gives them in different places.

Experiments:
[1] = Semi-chronic toxicity in vivo; conditions: mouse, mice
Plasmodium falciparum = experiment: Antimalarial activity in vitro towards Plasmodium falciparum ([3H]hypoxanthine incorporation, infected human erythrocytes); assay type: cell-based; conditions: Erythrocyte, approximately 48 hours; for IC50 upper bound (active at tested concentration): Table I; for IC50: Table II
Experimental: Evaluation of the antimalarial activity in vitro is carried out according to the method of DESJARDINS, CANFIELD, HATNES and CHULAY (Antimicrob. Agents Chemother., 1979, 16, 710-718). A compound according to the invention is brought into contact for approximately 48 hours with human erythrocytes infected with Plasmodium falciparum. When a radioactive nucleic acid precursor, hypoxanthine, is added to the preparation, only erythrocytes infected with Plasmodium and not affected by the said compound incorporate this precursor. […] The results are presented in Table I below, in the form of an IC50 (or ED50) (concentration of compound capable of inhibiting in vitro the growth of the parasites by 50%).
The derivatives according to the above examples are tested at three concentrations, 100, 33 and 10 nanomolar.

[2] = system: Plasmodium vinckei, petteri or chabaudi; experiment: Antimalarial activity in vivo, infected mice, 4 days; set-up: species or system petteri or chabaudi (male Swiss mice); conditions: ip, I.P., twice daily for 4 consecutive days
Experimental: This activity is measured according to the test described by PETERS W. (Chemotherapy and Drug resistance in Malaria, 1970). A compound according to the invention is administered for 4 consecutive days to mice infected beforehand with malaria using Plasmodium vinckei, petteri or chabaudi.
The said compound is dissolved in 0.9% aqueous NaCl solution or, where appropriate, in 10% aqueous gum arabic solution. The preparations are thus administered intraperitoneally or subcutaneously to male Swiss mice of average weight 30 to 40 g which have been infected beforehand intravenously with Plasmodium petterei or P. chabaudi (10^6 infected cells). The compound is administered twice daily for 4 consecutive days, the first injection being performed 2 hours after infestation, and the second 10 hours after. The parasitaemia is determined by means of a smear on the day following the end of the treatment.
The results are collated in Table II, in the form of an ED50 (dose of compound administered in vivo capable of a 50% inhibition of the growth of the parasites).

[3] = ip, I.P., 2 injections daily for four days, read-out: Toxicity LD50 I.P.
[4] = po, P.O., semi-chronic, four days, read-out: Toxicity LD50 P.O.
[5] = 33 nM, read-out: Plasmodium IC50 in vitro resp. at 33 nM
[6] = 100 nM, read-out: Plasmodium IC50 in vitro resp. 100 nM

| IC50 upper bound (active at tested concentration) (Plasmodium falciparum; [5]) [nM] | IC50 upper bound (active at tested concentration) (Plasmodium falciparum; [6]) [nM] | SMILES | LD50 [1, 3] [mg/kg] | LD50 [1, 4] [mg/kg] | IC50 (Plasmodium falciparum) [nM] | ED50 [2] [mg/kg] |
| --- | --- | --- | --- | --- | --- | --- |
| > 33 | < 100 | Cc1ccc(=N)n(CCCCCCCCn2cc(C)ccc2=N)c1 [Example 12, 1,1'-(1,8-octanediyl)bis(5-methyl-2(1H)-pyridinimine) dihydrobromide] | – | – | – | – |
| < 33 | < 100 | Cc1ccn(CCCCCCCCn2ccc(C)cc2=N)c(=N)c1 [Example 13] | – | – | – | – |
| > 33 | < 100 | Cc1ccn(CCCCCCn2ccc(C)cc2=N)c(=N)c1 [Example 14, 1,1'-(1,6-hexanediyl)bis(4-methyl-2(1H)-pyridinimine) dihydrobromide] | – | – | – | – |
| < 33 | < 100 | Cc1ccn(CCCCCCCCCCCCCCCCn2ccc(C)cc2=N)c(=N)c1 [Example 15, 1,1'-(1,16-hexadecanediyl)bis(4-methyl-2(1H)-pyridiniminedihydrobromide] | – | – | – | – |
| > 33 | < 100 | CCc1ccn(CCCCCCCCCCCCCCCCn2ccc(CC)cc2=N)c(=N)c1 [Example 16, 1,1'-(1,16-hexadecanediyl)bis(4-ethyl-2(1H)-pyridinimine) dihydrobromide] | – | – | – | – |
| < 33 | < 100 | Cc1ccn(CCCCCCCCCCCCn2ccc(C)c(C)c2=N)c(=N)c1C [Example 17, 1,1'-(1,12-dodecanediyl)bis(3,4-dimethyl-2(1H)-pyridinimine)] | – | – | – | – |
| < 33 | < 100 | Cc1cc(C)c(=N)n(CCCCCCCCCCCCn2cc(C)cc(C)c2=N)c1 [Example 18, 1,1'-(1,12-dodecanediyl)bis(3,5-dimethyl-2(1H)-pyridinimine)] | – | – | – | – |
| < 33 | < 100 | Cc1ccc(C)n(CCCCCCCCCCCCn2c(C)ccc(C)c2=N)c1=N [Example 19, 1,1'-(1,12-dodecanediyl)bis(3,6-dimethyl-2(1H)-pyridinimine)] | – | – | – | – |
| < 33 | < 100 | Cc1cc(=N)n(CCCCCCCCCCCCn2cc(C)c(C)cc2=N)cc1C [Example 20, 1,1'-(1,12-dodecanediyl)bis(4,5-dimethyl-2(1H)-pyridinimine)] | – | – | – | – |
| < 33 | < 100 | Cc1cc(C)n(CCCCCCCCCCCCn2c(C)cc(C)cc2=N)c(=N)c1 [Example 21, 1,1'-(1,12-dodecanediyl)bis(4,6-dimethyl-2(1H)-pyridinimine)] | – | – | – | – |
| < 33 | < 100 | Cc1ccc(=N)n(CCCCCCCCCCCCn2c(C)c(C)ccc2=N)c1C [Example 22, 1,1'-(1,12-dodecanediyl)bis(5,6-dimethyl-2(1H)-pyridinimine)] | – | – | – | – |
| – | > 100 | CCc1ccn(CCCCCCCCCCCCn2ccc(CC)cc2=N)c(=N)c1 [Example 24, 1,1'-(1,12-dodecanediyl)bis(4-ethyl-2(1H)-pyridinimine)] | – | – | – | – |
| < 33 | < 100 | CCc1cccc(=N)n1CCCCCCCCCCCCn1c(CC)cccc1=N [Example 26, 1,1'-(1,12-dodecanediyl)bis(6-ethyl-2(1H)-pyridinimine)] | – | – | – | – |

The next lines start with the molecule.

| SMILES | IC50 upper bound (active at tested concentration) (Plasmodium falciparum; [5]) [nM] | IC50 upper bound (active at tested concentration) (Plasmodium falciparum; [6]) [nM] | LD50 [1, 3] [mg/kg] | LD50 [1, 4] [mg/kg] | IC50 (Plasmodium falciparum) [nM] | ED50 [2] [mg/kg] |
| --- | --- | --- | --- | --- | --- | --- |
| Cc1cccn(CCCCCCCCCCCCn2cccc(C)c2=N)c1=N [Example 2, 1,1'-(1,12-dodecanediyl)bis(3-methyl-2(1H)-pyridinimine) dihydrobromide] | < 33 | < 100 | 20 | > 500 | 1.8 | 3 |
| Cc1ccc(=N)n(CCCCCCCCCCCCn2cc(C)ccc2=N)c1 [Example 3, 1,1'-(1,12-dodecanediyl)bis(5-methyl-2(1H)-pyridinimine) dihydrobromide] | < 33 | < 100 | 6.5 | > 300 | 0.5 | 3 |
| Cc1cccc(=N)n1CCCCCCCCCCCCn1c(C)cccc1=N [Example 4, 1,1'-(1,12-dodecanediyl)bis(6-methyl-2(1H)-pyridinimine) dihydrobromide] | < 33 | < 100 | – | – | – | – |
| N=c1ccc(-c2ccccc2)cn1CCCCCCCCCCCCn1cc(-c2ccccc2)ccc1=N [Example 5, 1,1'-(1,12-dodecanediyl)bis(5-phenyl-2(1H)-pyridinimine) dihydrobromide] | < 33 | < 100 | – | – | – | – |
| N=c1c(OCc2ccccc2)cccn1CCCCCCCCCCCCn1cccc(OCc2ccccc2)c1=N [Example 6, 1,1'-(1,12-dodecanediyl)bis(3-phenylmethoxy-2(1H)-pyridinimine) dihydrobromide] | < 33 | < 100 | – | – | – | – |
| Cc1ccc(-c2ccn(CCCCCCCCCCCCn3ccc(-c4ccc(C)cc4)cc3=N)c(=N)c2)cc1 [Example 7, 1,1'-(1,12-dodecanediyl)bis(4-(4-methyl-phenyl)-2(1H)-pyridinimine) dihydrobromide] | < 33 | < 100 | – | – | – | – |
| CCCCc1cccn(CCCCCCCCCCCCn2cccc(CCCC)c2=N)c1=N [Example 8, 1,1'-(1,12-dodecanediyl)bis(3-n-butyl-2(1H)-pyridinimine) dihydrobromide] | < 33 | < 100 | – | – | – | – |
| N=c1ccc(Cl)cn1CCCCCCCCCCCCn1cc(Cl)ccc1=N [Example 9, 1,1'-(1,12-dodecanediyl)bis(5-chloro-2(1H)-pyridinimine) dihydrobromide] | < 33 | < 100 | 10 | > 200 | 1.4 | 4 |
| N=c1cc(Br)ccn1CCCCCCCCCCCCn1ccc(Br)cc1=N [Example 10, 1,1'-(1,12-dodecanediyl)bis(4-bromo-2(1H)-pyridinimine) dihydrobromide] | < 33 | < 100 | – | – | – | – |
| N=c1c(Cl)cc(C(F)(F)F)cn1CCCCCCCCCCCCn1cc(C(F)(F)F)cc(Cl)c1=N [Example 11, 1,1'-(1,12-dodecanediyl)bis(3-chloro-5-trifluoromethyl-2(1H)-pyridinimine) dihydrobromide] | < 33 | < 100 | – | – | – | – |
| CCc1cccn(CCCCCCCCCCCCn2cccc(CC)c2=N)c1=N [Example 23, 1,1'-(1,12-dodecanediyl)bis(3-ethyl-2(1H)-pyridinimine)] | > 33 | < 100 | 23 | > 400 | 7.2 | > 5 |
| CCc1ccc(=N)n(CCCCCCCCCCCCn2cc(CC)ccc2=N)c1 [Example 25, 1,1'-(1,12-dodecanediyl)bis(5-ethyl-2(1H)-pyridinimine)] | < 33 | < 100 | 7.5 | > 200 | 3.8 | > 5 |
